# Test results reported in patent publication US8859541B2, “6-alkynylpyridines” (Boehringer Ingelheim International GmbH, priority 2012, dated 2014).
# Target: T1, XIAP BIR3 (Homo sapiens, UniProt P98170)
# T1 construct: covering amino acids 241 to 356; XIAP BIR3; made in house; host or cells: E. coli
# Assay: XIAP BIR3 binding assay (DELFIA), displacement of SMAC peptide
# Details: GST-fusion BIR3 domain (aa 241 to 356) 10 nM, SMAC peptide 10 nM; activity of the (S)-isomers
# Procedure: Biological Methods XIAP BIR3 and cIAP1 BIR3 Binding Assays (DELFIA)
# Peptide […]-Lys(Biotin), representing the N-terminus of mature human SMAC (SMAC peptide), was used as interaction partner in the protein-peptide interaction assay.
# BIR3 domains (10 nM) were incubated with SMAC peptide (10 nM) in Assay Buffer (50 mM Tris, 120 mM NaCl, 0.1% BSA, 1 mM DTT, 0.05% TritonX100) for one hour at room temperature in the presence of inhibitiory compounds. The assay mixture was transferred to a strepatvidin coated plate and incubated for one hour at room temperature to allow binding of the biotinylated peptide and associated BIR3 domains to the plate. After several washing steps Eu labeled anti-GST antibody (e.g. Perkin Elmer DELFIA Eu-N1-antiGST AD0250) was added to detect BIR3 domain-SMAC peptide interactions according to Perkin Elmer's instructions. […] Time resolved Europium fluoresecence was measured in a Wallac Victor using Standard assay settings.
# DELFIA assay results were plotted against compound concentrations and Software GraphPad Prizm was used to calculate half maximal inhibitory concentrations (IC50 values).
# T1 sequence (P98170 241-356): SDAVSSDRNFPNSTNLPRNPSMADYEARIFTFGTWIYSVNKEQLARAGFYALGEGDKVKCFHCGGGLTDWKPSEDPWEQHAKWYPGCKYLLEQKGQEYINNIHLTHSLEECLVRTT
row,IC50 [µM],Structure (SMILES)
1,0.214,"CNC(C)C(=O)Nc1ccc(-c2cncnc2C)c(C#Cc2ccc(C)c(C)c2)n1 (stereo not drawn) [Example 6, N-[6-[2-(3,4-dimethylphenyl)-ethynyl]-5-(4-methylpyrimidin-5-yl)pyridin-2-yl]-2-(methylamino)propan-amide]"
2,0.165,"CNC(C)C(=O)Nc1ccc(-c2c(C)nc3cnccn23)c(C#Cc2ccc3ncccc3c2)n1 (stereo not drawn) [Example 68, 2-(methylamino)-N-[5-(2-methylimidazo[1,2-a]pyrazin-3-yl)-6-(2-quinolin-6-ylethynyl)-pyridin-2-yl]propanamide]"
3,0.503,"CNC(C)C(=O)Nc1ccc(-c2cccc3c2ccn3C)c(C#Cc2ccccc2)n1 (stereo not drawn) [Example 142, 2-(methylamino)-N-[5-(1-methylindol-4-yl)-6-(2-phenyl-ethynyl)pyridin-2-yl]propanamide]"
4,1.63,"CC(N)C(=O)Nc1ccc(-c2cccc(F)c2)c(C#Cc2ccccc2)n1 (stereo not drawn) [Example 114, 2-amino-N-[5-(3-fluorophenyl)-6-(2-phenylethynyl)pyridin-2-yl]-propanamide]"
5,2.84,"CCc1ccccc1-c1ccc(NC(=O)C(C)NC)nc1C#Cc1ccccc1 (stereo not drawn) [Example 124, N-[5-(2-ethylphenyl)-6-(2-phenyl-ethynyl)pyridin-2-yl]-2-(methyl-amino)propanamide]"
6,0.745,"CNC(C)C(=O)Nc1ccc(-c2cncnc2)c(C#Cc2ccc3ccncc3c2)n1 (stereo not drawn) [Example 18, N-[6-(2-isoquinolin-7-yl-ethynyl)-5-pyrimidin-5-ylpyridin-2-yl]-2-(methyl-amino)propanamide]"
7,1.89,"CC(N)C(=O)Nc1cc2ccccc2c(C#Cc2cncs2)n1 (stereo not drawn) [Example 227, 2-amino-N-[1-[2-(1,3-thiazol-5-yl)ethynyl]isoquinolin-3-yl]-propanamide]"
8,1.15,"CCNC(CC)C(=O)Nc1ccc(-c2cncnc2)c(C#Cc2ccc3ncccc3c2)n1 (stereo not drawn) [Example 169, 2-(ethylamino)-N-[5-pyrimidin-5-yl-6-(2-quinolin-6-ylethynyl)pyridin-2-yl]butanamide]"
9,1.43,"CNC(C)C(=O)Nc1ccc(-c2cncnc2)c(C#Cc2ccc(OC)c(C#N)c2)n1 (stereo not drawn) [Example 12, N-[6-[2-(3-cyano-4-methoxyphenyl)ethynyl]-5-pyrimidin-5-ylpyridin-2-yl]-2-(methylamino)propanamide]"
10,4.58,"CC(N)C(=O)Nc1cccc(C#Cc2cncs2)n1 (stereo not drawn) [Example 239, 2-amino-N-[6-[2-(1,3-thiazol-5-yl)ethynyl]pyridin-2-yl]propanamide]"
11,1.82,"CNC(C)C(=O)Nc1ccc(-c2c(F)ccc3ccc(C)nc23)c(C#Cc2ccccc2)n1 (stereo not drawn) [Example 162, N-[5-(7-fluoro-2-methylquinolin-8-yl)-6-(2-phenylethynyl)pyridin-2-yl]-2-(methylamino)propan-amide]"
12,1.29,"CNC(C)C(=O)Nc1ccc(NC(=O)C2CCCC2)c(C#Cc2ccccc2)n1 (stereo not drawn) [Example 245, N-[6-[[2-(methylamino)-propanoyl]amino]-2-(2-phenylethynyl)pyridin-3-yl]-cyclopentanecarboxamide]"
13,0.4,"CNC(C)C(=O)Nc1ccc(-c2cccc3cnccc23)c(C#Cc2ccc(C)cc2)n1 (stereo not drawn) [Example 144, N-[5-isoquinolin-5-yl-6-[2-(4-methylphenyl)ethynyl]pyridin-2-yl]-2-(methylamino)propanamide]"
14,10.8,"CNC(C)C(=O)Nc1cc(C(F)(F)F)c(-c2cncnc2)c(C#Cc2ccccc2)n1 (stereo not drawn) [Example 201, 2-(methylamino)-N-[6-(2-phenylethynyl)-5-pyrimidin-5-yl-4-(trifluoromethyl)pyridin-2-yl]propanamide]"
15,3.19,"CC(N)C(=O)Nc1ccc(-c2ccccc2C(F)(F)F)c(C#Cc2ccccc2)n1 (stereo not drawn) [Example 110, 2-amino-N-[6-(2-phenylethynyl)-5-[2-(trifluoromethyl)phenyl]-pyridin-2-yl]propanamide]"
16,0.77,"CNC(C)C(=O)Nc1ccc(-c2c(C)nc(N3CCOCC3)nc2C)c(C#Cc2ccc(-c3cccnc3)cc2)n1 (stereo not drawn) [Example 86, N-[5-(4,6-dimethyl-2-morpholin-4-ylpyrimidin-5-yl)-6-[2-(4-pyridin-3-ylphenyl)-ethynyl]pyridin-2-yl]-2-(methyl-amino)propanamide]"
17,0.521,"CC(N)C(=O)Nc1ccc(-c2cccc(C(=O)O)c2)c(C#Cc2ccccc2)n1 (stereo not drawn) [Example 99, 3-[6-(2-aminopropanoylamino)-2-(2-phenylethynyl)pyridin-3-yl]-benzoic acid]"
18,2.41,"CC(N)C(=O)Nc1cccc(C#Cc2c(F)cccc2F)n1 (stereo not drawn) [Example 230, 2-amino-N-[6-[2-(2,6-difluorophenyl)ethynyl]pyridin-2-yl]propanamide]"

row,IC50 [µM],Structure (SMILES)
1,2.19,"Cc1cc(C)cc(C#Cc2cccc(NC(=O)C(C)N)n2)c1 (stereo not drawn) [Example 235, 2-amino-N-[6-[2-(3,5-dimethylphenyl)ethynyl]pyridin-2-yl]propanamide]"
2,1.24,"CNC(C)C(=O)Nc1ccc(-c2cnccc2OC)c(C#Cc2ccc3cnccc3c2)n1 (stereo not drawn) [Example 153, N-[6-(2-isoquinolin-6-ylethynyl)-5-(4-methoxypyridin-3-yl)-pyridin-2-yl]-2-(methylamino)-propanamide]"
3,5.92,"CC(N)C(=O)Nc1cccc(C#Cc2nccs2)n1 (stereo not drawn) [Example 237, 2-amino-N-[6-[2-(1,3-thiazol-2-yl)ethynyl]pyridin-2-yl]propanainide]"
4,2.04,"CC(N)C(=O)Nc1ccc(-c2cc(F)cc(C(F)(F)F)c2)c(C#Cc2ccccc2)n1 (stereo not drawn) [Example 115, 2-amino-N-[5-[3-fluoro-5-(trifluoromethyl)phenyl]-6-(2-phenylethynyl)pyridin-2-yl]-propanamide]"
5,0.446,"CNC(C)C(=O)Nc1ccc(-c2c(C)nc(N3CCOCC3)nc2C)c(C#Cc2ccc3cnccc3c2)n1 (stereo not drawn) [Example 83, N-[5-(4,6-dimethyl-2-morpholin-4-ylpyrimidin-5-yl)-6-(2-isoquinolin-6-ylethynyl)-pyridin-2-yl]-2-(methylamino)-propanamide]"
6,0.324,"CNC(C)C(=O)Nc1ccc(-c2c(C)ncnc2C)c(C#Cc2ccc3ccccc3c2)n1 (stereo not drawn) [Example 173, N-[5-(4,6-dimethylpyrimidin-5-yl)-6-(2-naphthalen-2-ylethynyl)pyridin-2-yl]-2-(methylamino)propanamide]"
7,2.3,"Cc1ccc(C#Cc2nc(NC(=O)C(C)N)cc3ccccc23)cc1 (stereo not drawn) [Example 205, 2-amino-N-[1-[2-(4-methyl-phenyl)ethynyl]isoquinolin-3-yl]propanamide]"
8,0.222,"Cc1cccc(C#Cc2cccc(NC(=O)C(C)N)n2)c1 (stereo not drawn) [Example 221, 2-amino-N-[6-[2-(3-methylphenyl)ethynyl]pyridin-2-yl]propanamide]"
9,0.46,"CNC(C)C(=O)Nc1ccc(-c2cncnc2)c(C#Cc2ccc3[nH]c(C)nc3c2)n1 (stereo not drawn) [Example 7, 2-(methylamino)-N-[6-[2-(2-methyl-1H-benzimidazol-5-yl)ethynyl]-5-pyrimidin-5-ylpyridin-2-yl]propanamide]"
10,0.22,"CC(N)C(=O)Nc1ccc(-c2cncnc2)c(C#Cc2ccccc2)n1 (stereo not drawn) [Example 105, 2-amino-N-[6-(2-phenylethynyl)-5-pyrimidin-5-ylpyridin-2-yl]-propanamide]"
11,0.259,"CNC(C)C(=O)Nc1ccc(-c2cncnc2)c(C#Cc2ccc3c(c2)OCCCO3)n1 (stereo not drawn) [Example 2, N-(6-[2-(3,4-dihydro-2H-1,5-benzodioxepin-7-yl)ethynyl]-5-pyrimidin-5-ylpyridin-2-yl]-2-(methylamino)propanamide]"
12,0.711,"CNC(C)C(=O)Nc1ccc(-c2cncnc2)c(C#Cc2ccc3scnc3c2)n1 (stereo not drawn) [Example 15, N-[6-[2-(1,3-benzothiazol-5-yl)ethynyl]-5-pyrimidin-5-ylpyridin-2-yl]-2-(methyl-amino)propanamide]"
13,3.06,"CC(N)C(=O)Nc1cccc(C#Cc2ccc(F)c(F)c2)n1 (stereo not drawn) [Example 212, 2-amino-N-[6-[2-(3,4-difluorophenyl)ethynyl]pyridin-2-yl]propanamide]"
14,0.228,"CNC(C)C(=O)Nc1ccc(-c2c(C)nc3ccccn23)c(C#Cc2ccc3c(=O)n(C)ccc3c2)n1 (stereo not drawn) [Example 32, 2-(methylamino)-N-[5-(2-methylimidazo[1,2-a]pyridin-3-yl)-6-[2-(2-methyl-1-oxoisoquinolin-6-yl)ethynyl]-pyridin-2-yl]propanamide]"
15,1.19,"CNC(C)C(=O)Nc1ccc(-c2c(C)nc3ccccn23)c(C#Cc2ccc(-c3ccc(OC)cc3)cc2)n1 (stereo not drawn) [Example 65, N-[6-[2-[4-(4-methoxyphenyl)-phenyl]ethynyl]-5-(2-methyl-imidazo[1,2-a]pyridin-3-yl)-pyridin-2-yl]-2-(methylamino)-propanamide]"
16,0.222,"CNC(C)C(=O)Nc1ccc(-c2ccc([N+](=O)[O-])nc2)c(C#Cc2ccccc2)n1 (stereo not drawn) [Example 181, 2-(methylamino)-N-[5-(6-nitropyridin-3-yl)-6-(2-phenyl-ethynyl)pyridin-2-yl]propanamide]"
17,0.745,"CNC(C)C(=O)Nc1ccc(N(C)C(=O)c2ccccc2)c(C#Cc2ccccc2)n1 (stereo not drawn) [Example 247, N-methyl-N-[6-[[2-(methyl-amino)propanoyl]amino]-2-(2-phenylethynyl)pyridin-3-yl]-benzamide]"
18,7.04,"CC(N)C(=O)Nc1cccc(C#CC2=CCCCC2)n1 (stereo not drawn) [Example 225, 2-amino-N-[6-[2-(cyclohexen-1-yl)ethynyl]pyridin-2-yl]propanamide]"
